Data: patent US20240239774A1, “SOLUBLE ADENYLYL CYCLASE (SAC) INHIBITORS AND USES THEREOF” (Cornell University, priority 2021, published 2024)
Where “and” joins values, the source holds several entries; their conditions need not be identical. Equal entries are not always repeated. Entries after “also recorded” stand apart in the source; their conditions may differ.

What was measured:
[1] = Serum levels after single i.p. injection; format: in vivo, mouse; details: single intraperitoneal (i.p.) injection
fertility of male mice = assay: Timed mating of inhibitor-injected male mice; format: in vivo, mouse; details: for Contraceptive efficacy: compared to vehicle-injected control
Method: Single-housed naïve (i.e., uninjected and virgin) male and female C57B1/6 mice were acclimatized to reverse light cycle (dark: 11 am to 11 pm) for at least two weeks. […] Pregnancy and litter size were assessed in two ways. Either females were sacrificed 7 days following mating and implanted embryos counted, or females were permitted to go to term (21 days) and pups counted. A subset of the pups (both male and female) born from breakthrough pregnancies were permitted to mature and their fertility assessed in standard matings.

human sperm [2] = assay: Flagellar beat analysis of single sperm; details: stimulation with 25 mM NaHCO3; 0.2 μM Example 1 (FIG. 13), 10 nM Example 133
Description: Motile sperm were allowed to swim up into the HTF layer, while immotile sperm, as well as other cells or tissue debris, did remain in the ejaculate fraction.

immobilized sAC protein = assay: Binding kinetics by surface plasmon resonance
Method: After coupling, remaining reactive groups on the chip's surface were blocked with 1 M ethanolamine followed by 350 mM EDTA to wash away any free Ni^2+. […] All experiments included reference channels; i.e., inhibitor run over parallel channels without immobilized protein. Binding kinetics were determined by subtracting responses in the reference channels from responses in the active channels. Curves were fitted, and kon and koff values were determined using the Biacore 8K Insight Evaluation Software Version 2.0 (Cytiva) and a 1:1 binding kinetics model.

mouse sperm [3] = assay: Intracellular cAMP in sperm in vitro; format: cell-based; details: for bicarbonate-induced cAMP rise: 5 μM Example 1 or 10 nM Example 133, capacitating media, 12 minutes
Method: (§1) cAMP generation was measured in mouse and human sperm. For mouse sperm, aliquots of 2×10^6 mouse sperm were incubated for 12 minutes in the presence or absence of sAC inhibitor in non-capacitating or capacitating TYH buffer. For human sperm, aliquots of 2×10^6 human sperm were incubated for 30 minutes in the presence or absence of sAC inhibitor in non-capacitating or capacitating HTF buffer. In both cases, 0.1% DMSO was used as vehicle control.
(§2) After 5 min, 150 μl of sperm/inhibitor mix was diluted into 1.35 ml non-capacitating or capacitating media with no inhibitor. After 12 minutes (mouse sperm) or 30 minutes (human sperm), sperm were sedimented by centrifugation at 2,000×g for 3 minutes and lysed in 200 μl HCl for 10 minutes. Sperm lysates were centrifuged at 2,000×g for 3 minutes and the cAMP in the supernatant was acetylated and quantified using the Direct cAMP ELISA (Enzo).

human sperm [4] = assay: Intracellular cAMP in sperm in vitro; format: cell-based; details: for bicarbonate-induced cAMP rise: 5 μM Example 1 or 10 nM Example 133, capacitating media
Method: as §1, §2

mouse sperm [5] = assay: Flagellar beat analysis of single sperm; format: cell-based; details: stimulation with 25 mM NaHCO3; 5 μM Example 1 or 10 nM Example 133
Method: An inverted dark-field video microscope (IX73; Olympus) with a 10× objective (mouse sperm) and a 20× objective (human sperm) (UPLSAPO, NA 0.8; Olympus) was combined with a high-speed camera (ORCA Fusion; Hamamatsu). Dark-field videos were recorded with a frame rate of 200 Hz. The temperature of the heated stage was set to 37° C. (stage top incubator WSKMX; TOKAI HIT).
An inverted dark-field video microscope (IX73; Olympus) with a 10×objective (mouse sperm) or a 20×objective (human sperm) (UPLSAPO, NA 0.8; Olympus) was combined with a high-speed camera (ORCA Fusion; Hamamatsu). Dark-field videos were recorded with a frame rate of 200 Hz. The temperature of the heated stage was set to 37° C. (stage top incubator WSKMX; TOKAI HIT). The images were preprocessed with the imageJ plugin SpermQ Preparator (Gaussian blur with sigma 0.5 px; Subtract background method with radius 5 px) and analyzed using the ImageJ plugin SpermQ [Reference 84]. The beat frequency was determined from the highest peak in the frequency spectrum of the curvature time course, obtained by Fast Fourier Transform.

mouse sperm [6] = assay: Ex vivo sperm tyrosine phosphorylation (Western blot) from injected mice; format: in vivo; details: 50 mg/kg i.p., one hour post injection
Method: After 15 minutes swim-out at 37° C., sperm from two caudae were combined and counted using a hematocytometer. For capacitation, sperm were incubated for 90 minutes in TYH containing 3 mg/ml BSA and 25 mM NaHCO3 in a 37° C. incubator. To control for the consequences of dilution during isolation of epididyrnal mouse sperm for ex vivo assays, the ability for bicarbonate to induce a prototypical pattern of tyrosine phosphorylation (pY) which is a widely used molecular hallmark of capacitation was assessed [Reference 80]. Bicarbonate-induced pY is known to be sAC dependent in vitro [References 37, 46, 62]. For experiments studying sperm from injected mice, ‘swim out’ was performed in 200 μl TYH, which corresponded to a 1:10 dilution from epididymis ([…] in 200 μl buffer). Capacitation induced changes were assessed by adding 50 μl of ‘swim out’ sperm to increasing volumes of non-capacitating or capacitating TYH buffer.
Mouse sperm from vehicle or inhibitor-injected mice were isolated 1 hour from male mice injected (i.p.) with 150 μl of solution containing sAC inhibitor or vehicle. Sperm were diluted 1:20 to 1:1000 in capacitating TYH media. As control, sperm from vehicle-injected mice were diluted 1:1000 in non-capacitating and capacitating TYH buffer. The samples were incubated for 90 minutes, washed with 1 ml PBS and sedimented by centrifugation at 2,000×g for 3 minutes. The sedimented sperm were resuspended in 15 μl 2× Laemmli sample buffer [Reference 83], heated for 5 minutes at 95° C., supplemented with 8 μl β-mercaptoethanol and heated again for 5 minutes at 95° C. For Western blot analysis, proteins were transferred onto PVDF membranes (Thermo Scientific), probed with anti-phosphotyrosine antibodies, and analyzed using a cherniluminescence detection system. Image lab (Bio-Rad) was used for densitometric analysis of Western blots.

epididymal mouse sperm = assay: Ex vivo sperm motility (CASA) from injected mice; format: in vivo; details: for sperm motility ex vivo: one hour post-injection, diluted 1:200 in inhibitor-free media
Method: For ex vivo assessment of mouse sperm from inhibitor-injected mice, sperm (25 μl) isolated at the indicated time points (1 hour to 24 hours post-injection) were loaded on a […] Leja slide (Hamliton Thorne) and placed on a microscope stage at 37° C. Sperm movements of 10 fields of at least 500 sperm were examined using computer-assisted sperm analysis (CASA) via Hamilton-Thorne digital image analyzer (IVOS II, Hamilton Thorne Research, Beverly, MA) with the following parameters: 30 frames, frame rate: 60 Hz, cell size: 30-170 μm^2.

[7] = 50 mg/kg i.p. to males, mating time 8 hours
[8] = swim out sperm minimally diluted
[9] = 50 mg/kg i.p. to males, mating time 5 hours
[10] = 50 mg/kg i.p. to males, mating time 11 hours
[11] = 50 mg/kg i.p., mating 4 days, 1 week post-injection (recovery of fertility)
[12] = preincubation 5 min in 5 μM Example 1 or 10 nM Example 133, then dilution (legend 1:10; text 100-fold)

With `Cc1c(Cc2ccccc2)c(-c2cc(Cl)nc(N)n2)nn1C` [Example 1, 4-(4-benzyl-1,5-dimethyl-pyrazol-3-yl)-6-chloro-pyrimidin-2-amine] the “time to maximum serum levels (C max)” value [1] was at most 7.5 min, the “Pregnancy pairings (pregnancies per total pairings)” value (fertility of male mice; [7]) was “(14/45)” and the Pregnancy rate (fertility of male mice; [7]) was 31.1%. For the same compound, the Contraceptive efficacy (fertility of male mice; [7]) was 25%, the “bicarbonate-induced change in flagellar beating / beat frequency” value (human sperm [2]) was “prevents bicarbonate-induced changes in flagellar beating pattern” and the “off-rate (T1/2)” value (immobilized sAC protein) was 20 s. The “bicarbonate-induced cAMP rise” value (mouse sperm [3]) was “blocks the bicarbonate-induced cAMP rise”, the “bicarbonate-induced cAMP rise” value (human sperm [4]) was “blocks the bicarbonate-induced cAMP rise” and the “bicarbonate-induced change in flagellar beating / beat frequency” value (mouse sperm [5]) was “prevents bicarbonate-induced changes in flagellar beating pattern”. The “capacitation-induced tyrosine phosphorylation (pY) pattern ex vivo” value (mouse sperm [6]; diluted 25 fold) was “restored”, the “capacitation-induced tyrosine phosphorylation (pY) pattern ex vivo” value (mouse sperm [6]; [8]) was “blocked” and the “sperm motility ex vivo” value (epididymal mouse sperm; 50 mg/kg i.p.) was “indistinguishable from sperm isolated from vehicle-injected mice”.

For `Nc1nc(Cl)cc(-c2nn(C(F)F)cc2Cc2ccccc2OCCN2CCOC[C@H]2CO)n1` [Example 133], the “time to maximum serum levels (C max)” value [1] was at most 7.5 min, the “mouse behavior, movements and mating behaviors” value (fertility of male mice; 50 mg/kg i.p.) was “did not adversely affect mouse behavior” and the “Pregnancy pairings (pregnancies per total pairings)” value (fertility of male mice; [9]) was “(3/92)”. The Pregnancy rate (fertility of male mice; [9]) was 3.3% and 3.2%, the Contraceptive efficacy (fertility of male mice; [9]) was 90% and the “Pregnancy pairings (pregnancies per total pairings)” value (fertility of male mice; [7]) was “(3/40)”. For the same compound, the Pregnancy rate (fertility of male mice; [7]) was 7.2% and 7.5%, the Contraceptive efficacy (fertility of male mice; [7]) was 82% and the “Pregnancy pairings (pregnancies per total pairings)” value (fertility of male mice; [10]) was “(7/45)”. For the same compound, the Pregnancy rate (fertility of male mice; [10]) was 16% and 15.6%, the Contraceptive efficacy (fertility of male mice; [10]) was 65% and the “Pregnancy pairings (pregnancies per total pairings)” value (fertility of male mice; [11]) was “(13/14)”. For the same compound, the Pregnancy rate (fertility of male mice; [11]) was 93% and 92.9%, the “bicarbonate-induced change in flagellar beating / beat frequency” value (human sperm [2]) was “more potent than Example 1” and the “off-rate (T1/2)” value (immobilized sAC protein) was 4550 s. The “bicarbonate-induced cAMP rise” value (mouse sperm [3]) was “completely block”, the “inhibition of bicarbonate-induced cAMP synthesis after dilution into inhibitor-free media” value (mouse sperm [3]; [12]) was “survived a 100-fold dilution; also recorded: inhibits capacitation induced cAMP rise in diluted sperm” and the “bicarbonate-induced cAMP rise” value (human sperm [4]) was “completely block”. For the same compound, the “inhibition of bicarbonate-induced cAMP synthesis after dilution into inhibitor-free media” value (human sperm [4]; [12]) was “survived a 100-fold dilution; also recorded: inhibits capacitation induced cAMP rise in diluted sperm”, the “bicarbonate-induced change in flagellar beating / beat frequency” value (mouse sperm [5]) was “more potent than Example 1” and the “capacitation-induced tyrosine phosphorylation (pY) pattern ex vivo” value (mouse sperm [6]; diluted 100 fold) was “remained blocked”. For the same compound, the “capacitation-induced tyrosine phosphorylation (pY) pattern ex vivo” value (mouse sperm [6]; [8]) was “blocked”, the “sperm that recovered (progressive) motility” value (epididymal mouse sperm; 50 mg/kg i.p., 9 hours post injection, diluted 1:200) was 20% and the “sperm motility ex vivo” value (epididymal mouse sperm; 50 mg/kg i.p.) was “essentially immotile”. For the same compound, the cytotoxicity to sperm (epididymal mouse sperm; exogenous membrane-permeable cAMP rescued motility) was “not cytotoxic”.
